Assay results from PMC9081605, “A High-Throughput Toxicity Screen of 42 Per- and Polyfluoroalkyl Substances (PFAS) and Functional Assessment of Migration and Gene Expression in Human Placental Trophoblast Cells” (Frontiers in Toxicology, 2022).
“Also recorded” adds a separate entry of the source.

What was measured:
Assay type in all cases: cell-based, human
JEG-3 cells [1] = experiment: Mitochondrial membrane potential, JC-10 assay (HTTS)
Text: (§1) JEG-3 human choriocarcinoma trophoblastic cells (American Type Culture Collection, VA, United States) were maintained in sterile-filtered Minimum Essential Media (MEM) supplemented with L-glutamine and phenol red (Thermo Fisher Scientific, MA, United States), 10% (v/v) heat-inactivated BenchMark Fetal Bovine Serum (Gemini Bio, CA, United States), 1% (v/v) sodium pyruvate (Thermo Fisher Scientific, MA, United States), and 1% (v/v) penicillin streptomycin (Sigma Aldrich, MO, United States). Cells were maintained in an incubator at 37°C with 5% CO2. JEG-3 cells were cultured in 10 cm tissue culture plates and cell passage numbers were recorded.
(§2) A total of 42 perfluoroalkyl substances (PFAS) were evaluated (Supplementary Table S1 contains source and purity). PFAS stock solutions were maintained in 100% methanol as previous work has shown certain PFAS degrade when stored in dimethyl sulfoxide (DMSO; [Gaballah et al., 2020]). […] The vehicle control group consisted of 97.5% media + 2.5% methanol to match the concentration of methanol in the media at the highest PFAS concentration tested (500 µM). Menadione (50–500 µM) was used as a positive control for cytotoxicity assessment. PFAS were de-identified and assigned random numbers to eliminate bias. Chemical exposure plate maps were designed so that all experimental conditions were tested in at least technical duplicates per plate. The outer edges of each plate received media alone and were excluded from all analyses to avoid edge effects. Each plate map included 14 technical replicates of the vehicle control group and 14 technical replicates of media only. Biological replicates were defined as separate 384 well plates tested on separate days using different cell passages. The experimental workflow is depicted in Supplementary Figure S1.
(§3) JEG-3 cells were counted using a Z2 Coulter Particle Counter (Beckman Coulter, CA, United States) and seeded at a density of 2,500 cells per well in black-walled, clear bottom 384 well plates (Corning, #3764) and allowed to adhere overnight. Approximately 24 h later, 384 well plates were imaged using an IncuCyte Zoom live cell imager (Essen BioScience Inc., MI, United States) to obtain baseline cellular confluence measurements prior to chemical dosing (0 h). Media was removed from wells and replaced with fresh media containing chemical treatments (exposure media) using a Viaflo liquid handling device (Integra Biosciences, NH, United States). Within 30 min of exposure media application, plates were again imaged for cellular confluence using the IncuCyte Zoom. Plates were incubated with exposure media for 24 h and then imaged again using the IncuCyte Zoom (24 h).
The JC-10 assay (Enzo Life Sciences, NY, United States) was used to evaluate mitochondrial membrane potential, the main bioenergetic parameter that regulates respiratory rate, ATP synthesis and reactive oxygen species generation. In cells with polarized mitochondrial membranes, the JC-10 dye localizes to the mitochondrial matrix and forms red fluorescent aggregates (540/590 nm). In cells with depolarized mitochondrial membranes, the JC-10 dye localizes in the cytoplasm and converts to a green fluorescent monomer (490/525 nm). Mitochondrial membrane potential was calculated as the ratio of the green and red fluorescence intensities within a well.
At the end of the 24 h exposure period, exposure media was removed from the plate. The plate wells were then washed with 1x phosphate buffered saline (1x PBS). After washing, the JC-10 reagent was suspended in fresh 1x PBS and 20 µl was added to each well at a final concentration of 20 μM (Enzo Life Sciences, NY, United States). The plate was incubated for 1 h at 37°C, and the fluorescence intensities at excitation/emission wavelengths of 490/525 nm and 540/590 nm were measured using a CLARIOstar (BMG Labtech, Offenburg, Germany) plate reader, respectively.
HTTS data were analyzed using a custom data analysis script in R v 1.2.5019 ([R Core Team, 2019]). […]

JEG-3 cells [2] = experiment: Proliferation, change in confluence 0-24 h (IncuCyte Zoom, HTTS); settings: for Prolif ↑, lowest concentration at which the mean response value exceeded the mean control value ± 2*SD (rough binning): increase; for cellular proliferation relative to vehicle control (rough binning): after 24 h, in at least one concentration
Text: as §1, §2, §3
Plate well bottom images were evaluated using automated cell masking. The automated cell masking program was developed using IncuCyte Zoom base software. Cell masking parameters were defined using a training set of JEG-3 cell images obtained prior to conducting the experiments and following IncuCyte Zoom software recommendations. Briefly, the training images were obtained from cell culture plates with varying levels of JEG-3 cellular confluence (ranging from ∼15% confluent to ∼95% confluent). Parameters for the automated cell masking were first manually set by an experimenter for 3-6 images of low (∼15–30%), medium (∼30–70%), and high confluence (∼70% or greater). The training images were then evaluated by the automated masking program and manually checked to ensure the parameters were sufficiently strict to ignore background (e.g., blank space on the plate well bottom) but adequately sensitive to detect cell borders. The masking program was then implemented on the experimental plates to obtain a baseline cellular confluence measurement at 0 h and a second confluence measurement at 24 h. […]

JEG-3 cells [3] = experiment: CellTiter-Glo luminescent cell viability assay (HTTS); settings: for cell viability relative to vehicle control (rough binning): after 24 h, in at least one concentration
Text: as §1, §2, §3
In the same plate evaluated for mitochondrial membrane potential, cell viability measures were duplexed using the CellTiter-Glo (CTG) Luminescent Cell Viability Assay (Promega, WI, United States). CTG reagent was added to each well at a volume of 20 µl. The plate was left at room temperature to incubate for 5 min and then 20 µl from each well was transferred to a low-volume, round-bottom, white 384 well plate (Corning, NY, United States). The CTG reagent lyses cellular and mitochondrial membranes and binds to adenosine triphosphate (ATP) released by cells, which produces a luminescence signal. The intensity of the luminescence was considered a proxy measure for the number of live cells in a well. The luminescence intensities were measured using the CLARIOstar plate reader.
HTTS data were analyzed using a custom data analysis script in R v 1.2.5019 ([R Core Team, 2019]). Briefly, raw data points corresponding to the confluence measurements at 0 and 24 h, the fluorescence intensities corresponding to MMP, and the relative luminescence units (RLU) corresponding to cell viability were imported directly from Microsoft Excel into the R programming environment, RStudio. Separate plates run on separate days using different JEG-3 passages were considered as biologic replicates. […]

[4] = JEG-3 cells, 24 h exposure, four-parameter fit, estimates meeting inclusion criteria, read-out: MMP EC50 ± SD
[5] = JEG-3 cells, 24 h exposure, four-parameter fit, estimates meeting inclusion criteria, read-out: Proliferation EC50 ± SD
[6] = JEG-3 cells, 24 h exposure, four-parameter fit, estimates meeting inclusion criteria, read-out: Viability EC50 ± SD

Row | SMILES | Prolif ↑, lowest concentration at which the mean response value exceeded the mean control value ± 2*SD (rough binning) (JEG-3 cells [2]; JEG-3 cells, 24 h) | cellular proliferation relative to vehicle control (rough binning) (JEG-3 cells [2]) | cell viability relative to vehicle control (rough binning) (JEG-3 cells [3]) | EC50 (JEG-3 cells [1]; [4]) | EC50 (JEG-3 cells [2]; [5]) | EC50 (JEG-3 cells [3]; [6]) | other results
1 | O=C(O)CCC(F)(F)C(F)(F)C(F)(F)C(F)(F)C(F)(F)F [2H,2H,3H,3H-Perfluorooctanoic acid] | 50 µM | increased cellular proliferation | increased cell viability | – | – | – | EC50 (JEG-3 cells [1]; JEG-3 cells, raw model output including fits that did not meet inclusion criteria, read-out: MMP EC50 ± SD (raw values)): 71780 ± 10 µM; EC50 (JEG-3 cells [2]; JEG-3 cells, raw model output including fits that did not meet inclusion criteria, read-out: Proliferation EC50 ± SD (raw values)): 951 ± 671 µM
2 | O=P(O)(OCCC(F)(F)C(F)(F)C(F)(F)C(F)(F)C(F)(F)C(F)(F)F)OCCC(F)(F)C(F)(F)C(F)(F)C(F)(F)C(F)(F)C(F)(F)F [6:2 Fluorotelomer phosphate diester] | 37.5 µM | reduced cellular proliferation; also recorded: increased cellular proliferation | increased cell viability | – | – | – | EC50 (JEG-3 cells [1]; Homo sapiens, JEG-3, read-out: MMP EC50 ± SD (raw values), JEG-3 cells, raw model output including fits that did not meet inclusion criteria): 64402 ± 10 µM; minimal effective concentration (JEG-3 cells [2]; Homo sapiens, JEG-3, 24 h, read-out: Prolif ↓, lowest concentration at which the mean response value exceeded the mean control value ± 2*SD (rough binning)): 188 µM; EC50 (JEG-3 cells [2]; Homo sapiens, JEG-3, 24 h, read-out: Proliferation EC50 ± SD, JEG-3 cells, 24 h exposure, four-parameter fit, estimates meeting inclusion criteria): 142 ± 39.2 µM; EC50 (JEG-3 cells [2]; Homo sapiens, JEG-3, 24 h, read-out: proliferation EC50 ± SE, JEG-3 cells, 24 h): 142 ± 39.4 µM; Viability ↑, lowest concentration at which the mean response value exceeded the mean control value ± 2*SD (rough binning) (JEG-3 cells [3]; JEG-3 cells, 24 h, increase): 112.5 µM
3 | O=P(O)(O)OCCC(F)(F)C(F)(F)C(F)(F)C(F)(F)C(F)(F)C(F)(F)F [6:2 Fluorotelomer phosphate monoester] | – | – | – | 248 ± 62.1 µM | 193 ± 3.8 µM | 183 ± 21.7 µM | EC50 (JEG-3 cells [2]; JEG-3 cells, 24 h, read-out: proliferation EC50 ± SE): 193 ± 4 µM; EC50 (JEG-3 cells [3]; JEG-3 cells, 24 h, read-out: viability EC50 ± SE): 183 ± 22 µM
4 | O=C(O)C(F)(F)C(F)(F)C(F)(F)C(F)(F)C(F)(F)C(F)(F)C(F)F [8-H-Perfluorooctanoic acid] | – | – | – | 147 ± 27.1 µM | 441 ± 18.1 µM | 318 ± 183 µM | –
5 | O=P(O)(OCCC(F)(F)C(F)(F)C(F)(F)C(F)(F)C(F)(F)C(F)(F)C(F)(F)C(F)(F)F)OCCC(F)(F)C(F)(F)C(F)(F)C(F)(F)C(F)(F)C(F)(F)C(F)(F)C(F)(F)F [8:2 Fluorotelomer phosphate diester] | – | reduced cellular proliferation | reduced cell viability | – | – | – | MMP ↓, lowest concentration at which the mean response value exceeded the mean control value ± 2*SD (rough binning) (JEG-3 cells [1]; JEG-3 cells, 24 h, decrease): 350 µM; MMP relative to vehicle control (rough binning) (JEG-3 cells [1]; after 24 h, in at least one concentration): reduced MMP; Prolif ↓, lowest concentration at which the mean response value exceeded the mean control value ± 2*SD (rough binning) (JEG-3 cells [2]; JEG-3 cells, 24 h, decrease): 100 µM; Viability ↓, lowest concentration at which the mean response value exceeded the mean control value ± 2*SD (rough binning) (JEG-3 cells [3]; JEG-3 cells, 24 h, decrease): 50 µM
6 | O=P(O)(O)OCCC(F)(F)C(F)(F)C(F)(F)C(F)(F)C(F)(F)C(F)(F)C(F)(F)C(F)(F)F [8:2 Fluorotelomer phosphate monoester] | – | – | – | 312 ± 29.8 µM | 251 ± 37.6 µM | 360 ± 30.3 µM | –
